Consider six compounds from patent US10376481B2, “Compounds and methods for inhibiting NHE-mediated antiport in the treatment of disorders associated with fluid retention or salt overload and gastrointestinal tract disorders” (ARDELYX, INC, priority 2012, dated 2019).

Experiment [1] concerns absorption of sodium from the intestinal lumen. Briefly: Inhibition of intestinal sodium absorption: rat urinary sodium and fecal form 16 h post-dose. Format: in vivo, Sprague-Dawley rats. The settings on record: for FFS (fecal form score): 16 h post-dose, scale 1-5, group average. On the procedure:
Urinary sodium concentration and fecal form were measured to assess the ability of selected example compounds to inhibit the absorption of sodium from the intestinal lumen. Eight-week old Sprague-Dawley rats were purchased from Charles River Laboratories (Hollister, Calif.), were housed 2 per cage, and acclimated for at least 3 days before study initiation. Animals were fed Harlan Teklad Global 2018 rodent chow (Indianapolis, Ind.) and water ad libitum throughout the study and maintained in a standard light/dark cycle of 6 AM to 6 PM. On the day of the study, between 4 PM and 5 PM, a group of rats (n=6) were dosed via oral gavage with test compound or vehicle (water) at a volume of 10 mL/kg. After dose administration animals were placed in individual metabolic cages where they were also fed the same chow in meal form and watered ad libitum. At 16 h post-dose, the urine samples were collected and fecal form was assessed by two independent observations. Fecal forms were scored according to a common scale associated with increasing fecal water to the wettest observation in the cage's collection funnel (1, normal pellet; 2, pellet adhering to sides of collection funnel due to moisture; 3, loss of normal pellet shape; 4, complete loss of shape with a blotting pattern; 5, liquid fecal streams evident). A rat's fecal form score (FFS) was determined by averaging both observational scores for all rats within a group (n=6). The vehicle group average was 1. For urine samples, the volumes were determined gravimetrically and centrifuged at 3,600×g. The supernatants were diluted 100-fold in deionized Milli-Q water then filtered through a 0.2 μm GHP Pall AcroPrep filter plate (Pall Life Sciences, Ann Arbor, Mich.) prior to analysis by ion chromatography. Ten microliters of each filtered extract was injected onto a Dionex ICS-3000 ion chromatograph system (Dionex, Sunnyvale, Calif.). Cations were separated by an isocratic method using 25 mM methanesulfonic acid as the eluent on an IonPac CS12A 2 mm i.d.×250 mm, 8 μm particle size cation exchange column (Dionex). Sodium was quantified using standards prepared from a cation standard mix containing Li^+, Na^+, NH4^+, K^+, Mg^2+, and Ca^2+ (Dionex). The mean mass of sodium urinated for every group in the 16 h period was determined with the vehicle group usually urinating approximately 21 mg sodium. The urine Na (uNa) for rats in the test groups were expressed as a percentage of the vehicle mean and the means were compared to that of the vehicle group by utilizing a one-way analysis of variance coupled with a Dunnett's post hoc test.

Another experiment deals with T1, human NHE3 (Homo sapiens, UniProt P48764).
T1 sequence (P48764 26-834): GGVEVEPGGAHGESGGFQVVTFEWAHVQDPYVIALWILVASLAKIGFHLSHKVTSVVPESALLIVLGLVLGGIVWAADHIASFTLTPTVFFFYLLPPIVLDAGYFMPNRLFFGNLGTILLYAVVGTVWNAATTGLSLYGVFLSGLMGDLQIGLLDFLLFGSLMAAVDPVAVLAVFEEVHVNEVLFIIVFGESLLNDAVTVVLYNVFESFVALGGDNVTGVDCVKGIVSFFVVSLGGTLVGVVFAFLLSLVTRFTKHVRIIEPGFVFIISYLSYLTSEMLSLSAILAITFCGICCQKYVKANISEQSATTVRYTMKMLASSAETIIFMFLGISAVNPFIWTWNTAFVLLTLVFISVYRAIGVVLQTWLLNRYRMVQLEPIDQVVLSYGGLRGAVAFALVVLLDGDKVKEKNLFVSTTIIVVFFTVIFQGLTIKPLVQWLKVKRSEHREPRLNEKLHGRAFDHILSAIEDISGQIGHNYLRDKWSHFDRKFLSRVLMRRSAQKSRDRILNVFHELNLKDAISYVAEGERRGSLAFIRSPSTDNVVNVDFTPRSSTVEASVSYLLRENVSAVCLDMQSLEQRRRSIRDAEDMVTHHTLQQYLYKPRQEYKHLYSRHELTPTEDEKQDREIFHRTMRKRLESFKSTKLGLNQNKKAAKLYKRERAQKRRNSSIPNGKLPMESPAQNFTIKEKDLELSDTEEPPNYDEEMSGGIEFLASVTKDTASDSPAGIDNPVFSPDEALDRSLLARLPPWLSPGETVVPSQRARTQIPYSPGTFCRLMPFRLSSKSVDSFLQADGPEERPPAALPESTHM
Briefly: Cell-based assay of NHE-3 activity (pre-incubation inhibition), human. The settings on record: for IC50: PS120 fibroblasts stably expressing human NHE3, 10 min pre-incubation with 0-30 μM test compound, read-out: pIC50 (human Preincubation assay) (converted); for % inhibition (human Preincubation assay): PS120 fibroblasts stably expressing human NHE3, pre-incubation with test compound. On the procedure:
Rat and human NHE-3-mediated Na^+-dependent H^+ antiport was measured using a modification of the pH sensitive dye method originally reported by Paradiso (Proc. Natl. Acad. Sci. USA. (1984) 81(23): 7436-7440, which is hereby incorporated by reference in its entirety). PS120 fibroblasts stably expressing human NHE3 were obtained from Mark Donowitz (Baltimore, Md.). Opossum kidney (OK) cells were obtained from the ATCC and propagated per their instructions. The rat NHE-3 gene (GenBank M85300) was introduced into OK cells via electroporation, and cells were seeded into 96 well plates and grown overnight. Medium was aspirated from the wells then incubated for 30 min at 37° C. with NH4Cl-HEPES buffer (20 mM NH4Cl, 80 mM NaCl, 50 mM HEPES, 5 mM KCl, 2 mM CaCl2, 1 mM MgCl2, pH 7.4) containing 5 μM BCECF-AM. Cells were washed once with Ammonium free, Nat-free HEPES (100 mM choline, 50 mM HEPES, 10 mM glucose, 5 mM KCl, 2 mM CaCl2, 1 mM MgCl2, pH 7.4) and incubated in the same buffer for 10 minutes at room temperature to lower intracellular pH with 0-30 μM test compound. […] Changes in intracellular pH were monitored using a FLIPR Tetra® (Molecular Devices, Sunnyvale, Calif.) by excitation at λex 439 to 505 nm, and measuring BCECF fluorescence at λem 538 nm. The initial rate of the fluorescence ratio change was used as a measure of NHE-mediated Na^+/H^+ activity, and reported as the change in fluorescence ratio per minute. Initial rates were plotted as the average 2 or more replicates, and pIC50 values were estimated using GraphPad Prism.

Setting [2] is: oral gavage 10 mg/kg, urine 16 h post-dose, read-out: uNa Result, uNa (% of vehicle).

Each structure is given as a SMILES string.

For `N[C@@H]1CCCN([C@H]2Cc3c(Cl)cc(Cl)cc3[C@@H]2Oc2ccc(S(=O)(=O)NCCOCCOCCNC(=O)NCCCCNC(=O)NCCOCCOCCNS(=O)(=O)c3ccc(O[C@H]4c5cc(Cl)cc(Cl)c5C[C@@H]4N4CCC[C@@H](N)C4)cc3)cc2)C1` [Example 3, (S,S,R)—N,N′-(10,17-dioxo-3,6,21,24-tetraoxa-9,11,16,18-tetraazahexacosane-1,26-diyl)bis(4-((1S,2S)-2-((R)-3-aminopiperidin-1-yl)-4,6-dichloro-2,3-dihydro-1H-inden-1-yloxy)benzenesulfonamide)], the response vs control in vivo at 10 mg/kg in experiment [1] (setting [2]) is 35 to 75%. At human NHE3, the IC50 is less than 100 nM and the “% inhibition (human Preincubation assay)” value is “C (>70%)”.

For the compound `O=C(NCCCCNC(=O)NCCOCCOCCNS(=O)(=O)c1ccc(O[C@H]2c3cc(F)ccc3C[C@@H]2N2CCCCC2)cc1)NCCOCCOCCNS(=O)(=O)c1ccc(O[C@H]2c3cc(F)ccc3C[C@@H]2N2CCCCC2)cc1` [Example 23], the “FFS (fecal form score)” value in experiment [1] (oral gavage 10 mg/kg) came out at 1. Also, the response vs control in vivo at 10 mg/kg in experiment [1] (setting [2]) is more than 75%. Besides, on human NHE3, the IC50 was less than 100 nM and the “% inhibition (human Preincubation assay)” value is listed as “C (>70%)”.

On to `CN(C)[C@H]1Cc2c(Cl)cc(Cl)cc2[C@@H]1Oc1ccc(S(=O)(=O)NCCOCCOCCNC(=O)COCC(=O)NCCOCCOCCNS(=O)(=O)c2ccc(O[C@H]3c4cc(Cl)cc(Cl)c4C[C@@H]3N(C)C)cc2)cc1` [Example 9, 2,2′-oxybis(N-(2-(2-(2-(4-((1S,2S)-4,6-dichloro-2-(dimethylamino)-2,3-dihydro-1H-inden-1-yloxy)phenylsulfonamido)ethoxy)ethoxy)ethyl)acetamide)], for which the “FFS (fecal form score)” value in experiment [1] (oral gavage 3 mg/kg) turned out to be 2. For the same compound, in experiment [1] (oral gavage 3 mg/kg, urine 16 h post-dose, read-out: uNa Result, uNa (% of vehicle)), the response vs control in vivo at 3 mg/kg lay in the range of 35 to 75%. At human NHE3, the IC50 was less than 100 nM and the “% inhibition (human Preincubation assay)” value is on record as “C (>70%)”.

With `O=C(NCCCCNC(=O)NCCOCCOCCOCCNS(=O)(=O)c1ccc(O[C@H]2c3ccccc3C[C@@H]2N2CCCCC2)cc1)NCCOCCOCCOCCNS(=O)(=O)c1ccc(O[C@H]2c3ccccc3C[C@@H]2N2CCCCC2)cc1` [Example 16], the response vs control in vivo at 10 mg/kg in experiment [1] (setting [2]) is less than 35%. In addition, at human NHE3, the IC50 is less than 100 nM and the “% inhibition (human Preincubation assay)” value is “C (>70%)”.

As to `O=C(NCCCCNC(=O)NCCOCCOCCNC(=O)Nc1cccc(O[C@H]2c3ccccc3C[C@@H]2N2CCCCC2)c1)NCCOCCOCCNC(=O)Nc1cccc(O[C@H]2c3ccccc3C[C@@H]2N2CCCCC2)c1` [Example 13, 1-{2-[2-(2-{[(3-{[(1S,2S)-2-(piperidin-1-yl)-2,3-dihydro-1H-inden-1-yl]oxy}phenyl)carbamoyl]amino}ethoxy)ethoxy]ethyl}-3-{4-[({2-[2-(2-{[(3-{[(1S,2S)-2-(piperidin-1-yl)-2,3-dihydro-1H-inden-1-yl]oxy}phenyl)carbamoyl]amino}ethoxy)ethoxy]ethyl}carbamoyl)amino]butyl}urea], the response vs control in vivo at 10 mg/kg in experiment [1] (setting [2]) is more than 75%. Moreover, at human NHE3, the IC50 was more than 1000 nM and the “% inhibition (human Preincubation assay)” value is “C (>70%)”.

`O=C(NCCCCNC(=O)NCCOCCOCCNS(=O)(=O)c1ccc(O[C@H]2c3ccccc3C[C@@H]2N2CCCCC2)cc1)NCCOCCOCCNS(=O)(=O)c1ccc(O[C@H]2c3ccccc3C[C@@H]2N2CCCCC2)cc1` [Example 14]: the response vs control in vivo at 10 mg/kg in experiment [1] (setting [2]) was 35 to 75%. For the same compound, on human NHE3, the IC50 was less than 100 nM and the “% inhibition (human Preincubation assay)” value is “C (>70%)”.
